# Molecular target: T1, full length GRK5 (Homo sapiens, UniProt P34947)
# T1 construct: 6/2 fold concentrated full length GRK5 (Millipore, #14-714) in reaction buffer; purchased Millipore 14-714
# Assay: GRK5 kinase activity assay, ADP Glo Kinase Assay technology (Promega)
# Format: biochemical
# Conditions: group II; ADP Glo Kinase Assay (Table 9-B)
# Protocol: The maximal compound assay concentration was set to 100 μM, representing the compound assay concentration used in the primary screen.
# Increasing concentrations of GRK5 are incubated together with 100 μM ATP in the absence and presence of 10 μM casein in a reaction buffer. Within this incubation non-phosphorylated casein is converted into phosphorylated casein and ATP is converted into ADP. Thereafter nonconverted ATP is digested into AMP by addition of the ADP-Glo™ Reagent. Subsequently the ADP that is produced by GRK5 activity is phosphorylated back to ATP by addition of Promega Kinase Detection Reagent. These ATP levels serve as measure for the GRK5 activity and are quantified by a luciferase/luciferin reaction.
# For GRK5 kinase activity assay, the following protocol was used:
# The reaction buffer used was composed of: 20 mM MES pH 6.0, 1 mM DTT, 10 mM MgCl2, 0.01% Tween20 and the reaction volume was 6 μL.
# Firstly 4 μL 6/4 fold concentrated substrate and 6/4 fold concentrated ATP in 1 fold concentrated reaction buffer are added to each well of the assay plate. Subsequently 67 nL […] concentrated test compound in 100% DMSO are added to each well except to C− and C+ wells using pin tool. Then 67 nL 100% DMSO are pipetted to C− (no kinase, no compound) and C+ (no compound) wells using pin-tool and 2 μL reaction buffer are added to C− wells. […] After incubation for 120 min. at room temperature 6 μL ADP-Glo™ Reagent (ADP Glo™ Kinase Assay Kit: Promega, V9101) are added to each well to stop the kinase reaction and deplete the unconsumed ATP. After a second incubation for 40 min. at room temperature 12 μL of Kinase Detection Reagent are added to convert ADP to ATP and start luciferase/luciferin reaction for detection of ATP. […] Finally, after incubation for 40 min at room temperature the luminescence intensity was measured.
# The activity of the compounds was classified according to IC50 for binding sites of Grk5 into the following ranges:
# 8800 Customer compounds were screened for their ability to inhibit the enzymatic activity of GRK5. Screening was performed using the ADP Glo™ Kinase Assay technology (Promega). The small molecular weight compounds were delivered at 10 mM stock concentration and were tested at a final assay concentration of 100 μM.
# IC50 values were determined in triplicates at 12 concentrations with a dilution factor of three. Triplicates were measured on three different assay plates. The maximal compound assay concentration was set to 100 μM representing the compound assay concentration used in the primary screen. A larger maximal compound assay concentration could not be achieved since the maximal compound concentration on the compound plates was 10 mM (>1% DMSO concentration in the assay).
# T1 sequence (P34947 whole entry): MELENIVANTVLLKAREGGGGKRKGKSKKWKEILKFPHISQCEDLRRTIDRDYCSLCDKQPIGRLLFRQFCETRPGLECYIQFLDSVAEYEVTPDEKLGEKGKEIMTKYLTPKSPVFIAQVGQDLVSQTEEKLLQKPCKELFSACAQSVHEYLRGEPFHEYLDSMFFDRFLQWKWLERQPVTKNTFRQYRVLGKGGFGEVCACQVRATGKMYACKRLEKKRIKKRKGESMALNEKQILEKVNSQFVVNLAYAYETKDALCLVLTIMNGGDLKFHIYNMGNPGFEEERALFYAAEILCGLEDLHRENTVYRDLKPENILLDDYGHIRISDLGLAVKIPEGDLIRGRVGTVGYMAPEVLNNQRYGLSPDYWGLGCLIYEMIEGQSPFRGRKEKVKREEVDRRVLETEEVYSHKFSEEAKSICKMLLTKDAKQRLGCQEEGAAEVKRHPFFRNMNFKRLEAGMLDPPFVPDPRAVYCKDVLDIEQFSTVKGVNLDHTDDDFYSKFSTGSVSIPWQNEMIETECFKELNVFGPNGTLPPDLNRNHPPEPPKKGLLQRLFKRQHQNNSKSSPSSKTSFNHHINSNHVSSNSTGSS
row,IC50 [µM],SMILES
1,0.1 to 1,"Cc1[nH]c(/C=C2\C(=O)Nc3ccc(C(=O)O)cc32)c(C)c1C(=O)N[C@H](C)c1ccccc1 [II.137, (3Z)-3-[3,5-dimethyl-4-((1R)-1-phenyl-ethylcarbamoyl)-1H-pyrrol-2-ylmethylene]-2-oxo-2,3-dihydro-1H-indole-5-carboxylic acid]"
2,1 to 2,Cc1[nH]c(/C=C2\C(=O)Nc3ccc(C(=O)O)cc32)c(C)c1C(=O)NCCN1CCCC1 [II.2]
3,1 to 2,"CCC(NC(=O)c1ccc2c(c1)/C(=C/c1[nH]c(C)c(CCC(=O)O)c1C)C(=O)N2)c1cccc(Cl)c1 (stereo not drawn) [II.134, (3Z)-3-(5-{5-[1-(3-chloro-phenyl)-propylcarbamoyl]-2-oxo-1,2-dihydro-indol-3-ylidenemethyl}-2,4-dimethyl-1H-pyrrol-3-yl)-propionic acid]"

# Same assay, conditions: group II; final assay concentration 5 μM
row,SMILES,inhibition at 5 µM [%]
1,"Cc1[nH]c(/C=C2\C(=O)Nc3ccc(C(=O)NCc4c(F)cccc4F)cc32)c(C)c1C(=O)N1CCC[C@H]1CN1CCCC1 [II.189, (3Z)-3-[3,5-dimethyl-4-((2S)-2-pyrrolidin-1-ylmethyl-pyrrolidine-1-carbonyl)-1H-pyrrol-2-ylmethylene]-2-oxo-2,3-dihydro-1H-indole-5-carboxylic acid 2,6-difluoro-benzylamide]",98
2,"Cc1[nH]c(/C=C2\C(=O)Nc3ccc(C(=O)NCc4c(F)cccc4F)cc32)c(C)c1C(=O)N1CCC[C@@H]1CN1CCCC1 [II.191, (3Z)-3-[3,5-dimethyl-4-((2R)-2-pyrrolidin-1-ylmethyl-pyrrolidine-1-carbonyl)-1H-pyrrol-2-ylmethylene]-2-oxo-2,3-dihydro-1H-indole-5-carboxylic acid 2,6-difluoro-benzylamide]",66
3,"Cc1[nH]c(/C=C2\C(=O)Nc3ccc(C(=O)NCc4c(F)cccc4F)cc32)c(C)c1C(=O)N1CC[C@H](N(C)C)C1 [II.190, (3Z)-3-[4-((3S)-3-dimethylamino-pyrrolidine-1-carbonyl)-3,5-dimethyl-1H-pyrrol-2-ylmethylene]-2-oxo-2,3-dihydro-1H-indole-5-carboxylic acid 2,6-difluoro-benzylamide]",61
4,"C[C@@H](NC(=O)c1ccc2c(c1)/C(=C/Nc1ccc(CN3CCCCC3)cc1)C(=O)N2)C1CCCCC1 [II.77, (3Z)-N-[(1R)-1-cyclohexylethyl]-2-oxo-3-({[4-(piperidin-1-ylmethyl)phenyl]amino}methylene)indoline-5-carboxamide]",98
5,"Cc1[nH]c(/C=C2\C(=O)Nc3ccc(C(=O)NCc4c(F)cccc4F)cc32)c(C)c1C(=O)NCCN1CCCCC1 [II.192, (3Z)-3-[3,5-dimethyl-4-(2-piperidin-1-yl-ethylcarbamoyl)-1H-pyrrol-2-ylmethylene]-2-oxo-2,3-dihydro-1H-indole-5-carboxylic acid 2,6-difluoro-benzylamide]",86
6,"CC[C@H](NC(=O)c1ccc2c(c1)/C(=C/c1ccc(C(=O)N3CCN(C)CC3)cc1)C(=O)N2)c1ccccc1 [II.58, (3Z)-3-{4-[(4-methylpiperazin-1-yl)carbonyl]benzylidene}-2-oxo-N-[(1S)-1-phenylpropyl]indoline-5-carboxamide]",96
7,"COc1ccc([C@@H](C)NC(=O)c2ccc3c(c2)/C(=C/c2c[nH]c4ccccc24)C(=O)N3)cc1 [II.193, (3Z)-3-(1H-indol-3-ylmethylene)-2-oxo-2,3-dihydro-1H-indole-5-carboxylic acid [(1R)-1-(4-methoxy-phenyl)-ethyl]-amide]",88
8,"Cc1[nH]c(/C=C2\C(=O)Nc3ccc(C(=O)NCc4c(F)ccc(Cl)c4F)cc32)c(C)c1C(=O)N1CCC[C@H]1CN1CCCC1 [II.187, (3Z)-3-[3,5-dimethyl-4-((2S)-2-pyrrolidin-1-ylmethyl-pyrrolidine-1-carbonyl)-1H-pyrrol-2-ylmethylene]-2-oxo-2,3-dihydro-1H-indole-5-carboxylic acid 3-chloro-2,6-difluoro-benzylamide]",76

# More lines, now with the values ahead:
row,inhibition at 5 µM [%],SMILES
1,49,"CC[C@@H](NC(=O)c1ccc2c(c1)/C(=C/c1[nH]c(C)c(C(=O)N3CCN(C4CCN(C)CC4)CC3)c1C)C(=O)N2)c1ccccc1 [II.181, (3Z)-3-{3,5-dimethyl-4-[4-(1-methyl-piperidin-4-yl)-piperazine-1-carbonyyl]-1H-pyrrol-2-ylmethylene}-2-oxo-2,3-dihydro-1H-indole-5-carboxylic acid ((1R)-1-phenyl-propyl)-amide]"
2,74,"CCOC(=O)c1c(C)[nH]c(/C=C2\C(=O)Nc3ccc(C(=O)N[C@@H](Cc4ccccc4)C(=O)OC)cc32)c1C [II.157, (3Z)-5-[5-((1S)-1-methoxycarbonyl-2-phenyl-ethylcarbamoyl)-2-oxo-1,2-dihydro-indol-3-ylidenemethyl]-2,4-dimethyl-1H-pyrrole-3-carboxylic II. acid ester ethyl]"
3,56,"Cc1[nH]c(/C=C2\C(=O)Nc3ccc(C(=O)O)cc32)c(C)c1C(=O)NC(Cc1ccccc1)C(=O)O (stereo in doubt) [II.153, (3Z)-3-[4-((1R)-1-carboxy-2-phenyl-ethylcarbamoyl)-3,5-dimethyl-1H-pyrrol-2-ylmethylene]-2-oxo-2,3-dihydro-1H-indole-5-carboxylic acid]"
4,48,"Cc1[nH]c(/C=C2\C(=O)Nc3ccc(C(=O)O)cc32)c(C)c1C(=O)NC(C)C(=O)O (stereo in doubt) [II.148, (3Z)-3-[4-(1-carboxy-(1R)-ethylcarbamoyl)-3,5-dimethyl-1H-pyrrol-2-ylmethylene]-2-oxo-2,3-dihydro-1H-indole-5-carboxylic acid]"
5,76,"Cc1[nH]c(/C=C2\C(=O)Nc3ccc(C(=O)N[C@H](C)c4ccc(Cl)cc4)cc32)c(C)c1C(=O)N1CCCCC1 [II.66, (3Z)-N-[(1R)-1-(4-chlorophenyl)ethyl]-3-{[3,5-dimethyl-4-(piperidin-1-ylcarbonyl)-1H-pyrrol-2-yl]methylene}-2-oxoindoline-5-carboxamide]"
6,58,"COc1ccc([C@@H](C)NC(=O)c2ccc3c(c2)/C(=C/c2[nH]c(C)cc2C)C(=O)N3)cc1 [II.170, (3Z)-3-(3,5-dimethyl-1H-pyrrol-2-ylmethylene)-2-oxo-2,3-dihydro-1H-indole-5-carboxylic acid [(1R)-1-(4-methoxy-phenyl)-ethyl]-amide]"
7,81,"COC(=O)CC[C@H](NC(=O)c1c(C)[nH]c(/C=C2\C(=O)Nc3ccc(C(=O)N[C@@H](Cc4ccccc4)C(=O)OC)cc32)c1C)C(=O)OC [II.167, (3Z)-2-({5-[5-((1S)-1-methoxycarbonyl-2-phenyl-ethylcarbamoyl)-2-oxo-1,2-dihydro-indol-3-ylidenemethyl]-2,4-dimethyl-1H-pyrrole-3-carbonyl}-amino)-(S)-pentanedioic acid dimethyl ester]"

# Source: patent US9458463B2, “Method for treatment of diabetes by a small molecule inhibitor for GRK5” (MAX-PLANCK-GESELLSCHAFT ZUR FÖRDERUNG DER WISSENSCHAFTEN …, priority 2010, dated 2016)
